# Patent publication US20240374779A1, “ANTIMICROBIAL ARTICLES, METHODS OF MAKING AND USING SAME” (TERASAKI INSTITUTE FOR BIOMEDICAL INNOVATION, priority 2021, published 2024)
# Legend:
# [1] = rats; cited from earlier work
# [2] = hydrogen peroxide release kinetics from microspheres (dissolved oxygen in PBS with catalase); type: physicochemical; conditions: early stages (0-3 days); levels decreased gradually
# Method: The hydrogen peroxide release kinetics of the CPO/PLGA MPS were determined indirectly by measuring the dissolved oxygen levels in phosphate buffered saline (PBS) after breaking down the hydrogen peroxide with catalase. Dissolved oxygen levels were measured by an oxygen sensor probe (ISO-OXY-2, World Precision Instruments), which was connected to the free radical analyzer (TBR1025, World Precision Instruments). MPS with different CPO loading and MPS with different dimensions were evaluated. […] Catalase was used to catalyze the decomposition of hydrogen peroxide to water and oxygen. […] After fully flushed, the hypoxic chamber with glass vials containing samples was sealed and placed into a cell culture incubator at 37° C.
# C. difficile spores = conditions: similar concentrations (about 100 ppm) of vaporized hydrogen peroxide; cited from earlier work
compound,measurement,setting,value
NC(N)=O [Urea],LD50,[1],about 15 g/kg
"[Ca+2].[O-][O-] [free CPO, calcium peroxide]",peroxide levels with free CPO in PBS,[2],Elevated peroxide levels
"OO [vaporized hydrogen peroxide, hydrogen peroxide]",time to eradicate C. difficile spores,C. difficile spores,≤ 20 min
